Experiments:
[1] = rat; cited from earlier work
HSV-1 = experiment: Quantitative autoradiography of ^14 C-FMAU uptake in HSV-1-infected rats (focal encephalitis); conditions: for ^14 C Radioactivity Concentration: ± SD
Excerpt: (§1) These initial studies reflect observations on ten rats receiving ^14 C-FMAU. Seven of these were infected, and three uninfected control rats were subjected to a cortical freeze lesion (13) to test the effects of necrosis and breakdown of the blood-brain barrier on drug distribution.

[2] = Arterial plasma ^14 C activity by liquid scintillation counting; conditions: representative infected rat
[3] = rat, in vivo
Excerpt: as §1

HSV = conditions: NIAID Collaborative Study; cited from earlier work

SMILES: Cc1cn([C@@H]2O[C@H](CO)[C@@H](O)[C@@H]2F)c(=O)[nH]c1=O [FMAU]
- metabolic alteration [1]: only a minor fraction undergoes metabolic alteration

SMILES: Cc1cn([C@@H]2O[C@H](CO)[C@@H](O)[C@@H]2F)[14c](=O)[nH]c1=O [^14 C-FMAU]
- isotope uptake within infected brain regions (HSV-1; 24 hours after isotope injection): similarly enhanced within infected brain regions
- activity in lateral walls of the lateral ventricles (HSV-1; 24 hours, apparently uninfected ependymal lining): higher activity was noted
- ^14 C Radioactivity Concentration (HSV-1; Brain (C): Background, left cortex, viral antigen -, 6 hours): 104.35 ± 4.88 nCi/gm
- ^14 C Radioactivity Concentration (HSV-1; Brain (C): Left ventricular choroid plexus, viral antigen -, 6 hours): 188.59 ± 9.18 nCi/gm
- ^14 C Radioactivity Concentration (HSV-1; Brain (C): Optic chiasm, right, viral antigen +, 6 hours): 325.12 ± 16.46 nCi/gm
- ^14 C Radioactivity Concentration (HSV-1; Brain (D): Background, left cortex, viral antigen -, 6 hours): 95.29 ± 4.32 nCi/gm
- ^14 C Radioactivity Concentration (HSV-1; Brain (D): Left hypothalamus, viral antigen +, 6 hours): 1170.91 ± 66.90 nCi/gm
- ^14 C Radioactivity Concentration (HSV-1; Brain (D): Left optic tract, viral antigen +, 6 hours): 1105.89 ± 77.34 nCi/gm
- ^14 C Radioactivity Concentration (HSV-1; Brain (D): Right hypothalamus, viral antigen +, 6 hours): 1138.10 ± 99.57 nCi/gm
- ^14 C Radioactivity Concentration (HSV-1; Brain (E): Background, left cortex, viral antigen -, 6 hours): 96.78 ± 4.66 nCi/gm
- ^14 C Radioactivity Concentration (HSV-1; Brain (E): Background, right central thalamus, viral antigen -, 6 hours): 67.47 ± 3.90 nCi/gm
- ^14 C Radioactivity Concentration (HSV-1; Brain (E): Left dorsomedial thalamus, viral antigen +, 6 hours): 1183.53 ± 163.31 nCi/gm
- ^14 C Radioactivity Concentration (HSV-1; Brain (E): Left lateral thalamus, viral antigen +, 6 hours): 198.21 ± 21.00 nCi/gm
- ^14 C Radioactivity Concentration (HSV-1; Brain (F): Background, left cortex, viral antigen -, 6 hours): 106.57 ± 5.53 nCi/gm
- ^14 C Radioactivity Concentration (HSV-1; Brain (F): Central midbrain, viral antigen +, 6 hours): 468.81 ± 23.96 nCi/gm
- ^14 C Radioactivity Concentration (HSV-1; Brain (G): Background, central brainstem, viral antigen -, 6 hours): 110.97 ± 9.98 nCi/gm
- ^14 C Radioactivity Concentration (HSV-1; Brain (G): Background, left cortex, viral antigen -, 6 hours): 83.08 ± 7.70 nCi/gm
- ^14 C Radioactivity Concentration (HSV-1; Brain (G): Pineal gland, viral antigen +, 6 hours): 1509.18 ± 97.65 nCi/gm
- ^14 C Radioactivity Concentration (HSV-1; Eye (B): Retina, inferior, viral antigen +, 6 hours): 1528.07 ± 140.36 nCi/gm
- ^14 C Radioactivity Concentration (HSV-1; Eye (B): Retina, posterior, viral antigen +, 6 hours): 2447.81 ± 172.66 nCi/gm
- ^14 C Radioactivity Concentration (HSV-1; Liver, viral antigen staining -, 6 hours after ^14 C-FMAU (5 mg/kg i.v.)): 188.25 ± 13.19 nCi/gm
- ^14 C activity within infected regions vs background (HSV-1; each HSV-1-infected rat): exceeded background within infected regions and correlating closely with viral antigen staining in each case
- selectivity of uptake by infected brain cells (HSV-1; radiolabeled FMAU, HSV-1 infection): selectively taken up by infected brain cells
- background distribution of ^14 C activity (HSV-1; uninfected brain regions, 6 hours): quite uniform, with only minor variations among uninfected brain regions
- plasma ^14 C-FMAU concentration time course ([2]; 5 mg/kg i.v., to 6 hours): fell rapidly over the first 30 mins and more slowly thereafter
- plasma ^14 C-FMAU concentration at the time of sacrifice ([2]; 6 hours after 5 mg/kg i.v.): approximately 185 nCi/gm
- isotope uptake in or surrounding the area of necrosis [3]: no increase in isotope uptake was detected

SMILES: Nc1ncnc2c1ncn2[C@@H]1O[C@H](CO)[C@@H](O)[C@@H]1O [ara-A]
- therapeutic effect in HSV encephalitis (HSV): less than optimal

— patent US4489052A, “Quantitative autoradiographic mapping of focal herpes simplex virus encephalitis using a radiolabeled antiviral drug” (priority 1982, dated 1984)
